These results are taken from patent US8802678B2, “Carbonylated (aza) cyclohexanes as dopamine D3 receptor ligands” (Bioprojet, priority 2006, dated 2014).

Structures are written as SMILES.

What is called melting point is the temperature, or range, at which the solid turns liquid. In turn, `COCC(=O)N[C@H]1CC[C@H](CCN2CCN(c3cccc(F)c3F)CC2)CC1` [Example 91, N-(4-{2-[4-(2,3-Difluorophenyl)-piperazin-1-yl]ethyl}cyclohexyl)-2-methoxyacetamide] gave a melting point of 155 °C.

Molecule `COCCCC(=O)N[C@H]1CC[C@H](CCN2CCN(c3cc(F)c(F)c(F)c3F)CC2)CC1` [Example 93, 4-Methoxy-N-(4-{2-[4-(2,3,4,5-tetrafluorophenyl)piperazin-1-yl]ethyl}cyclohexyl)butyramide] returned a melting point of 201 °C.

As for `CC(C)OCC(=O)N[C@H]1CC[C@H](CCN2CCN(c3ccccc3F)CC2)CC1` [Example 97, N-(4-{2-[4-(2-Fluorophenyl)-piperazin-1-yl]ethyl}cyclohexyl)-2-isopropoxyacetamide], the melting point stood at 96 °C.

As for `N#CCCCC(=O)N[C@H]1CC[C@H](CCN2CCN(c3cc(F)c(F)c(F)c3F)CC2)CC1` [Example 98, 4-Cyano-N-(4-{2-[4-(2,3,4,5-tetrafluorophenyl)piperazin-1-yl]ethyl}cyclohexyl)butyramide], the melting point came out at 180 °C.

`COCCCC(=O)N[C@H]1CC[C@H](CCN2CCN(c3ccccc3)CC2)CC1` [Example 99, 4-Methoxy-N-{4-[2-(4-phenylpiperazin-1-yl)ethyl]cyclohexyl}butanamide] returned a melting point of 172 °C.

The molecule `CC(C)OCC(=O)N[C@H]1CC[C@H](CCN2CCN(c3cccc(C(F)(F)F)c3C#N)CC2)CC1` [Example 101, N-(4-{2-[4-(2-Cyano-3-trifluoromethylphenyl)piperazin-1-yl]ethyl}cyclohexyl)-2-isopropoxyacetamide] displayed a melting point of 144 °C.

In the case of `CCOCC(=O)N[C@H]1CC[C@H](CCN2CCN(c3cccc(C(F)(F)F)c3C#N)CC2)CC1` [Example 102, N-(4-{2-[4-(2-Cyano-3-trifluoromethylphenyl)piperazin-1-yl]ethyl}cyclohexyl)-2-ethoxyacetamide], the melting point was 173 °C.

As for `N#CCC(=O)N[C@H]1CC[C@H](CCN2CCN(c3cccc(C(F)(F)F)c3C#N)CC2)CC1` [Example 103, 2-Cyano-N-(4-{2-[4-(2-cyano-3-trifluoromethylphenyl)piperazin-1-yl]ethyl}cyclohexyl)acetamide], the melting point amounted to 222 °C.

For `CC(=O)NCC(=O)N[C@H]1CC[C@H](CCN2CCN(c3cccc(C(F)(F)F)c3)CC2)CC1` [Example 105, 2-Acetylamino-N-(4-{2-[4-(3-trifluoromethylphenyl)piperazin-1-yl]ethyl}cyclohexyl)acetamide], the melting point was determined as 187 °C.

In turn, `N#CCC(=O)N[C@H]1CC[C@H](CCN2CCN(c3cc(C(F)(F)F)cc(C(F)(F)F)c3)CC2)CC1` [Example 107, N-(4-{2-[4-(3,5-Bistrifluoro-methylphenyl)piperazin-1-yl]ethyl}cyclohexyl)-2-cyanoacetamide] gave a melting point of 196 °C.

Consider `CCOCC(=O)N[C@H]1CC[C@H](CCN2CCN(c3cc(C(F)(F)F)cc(C(F)(F)F)c3)CC2)CC1` [Example 108, N-(4-{2-[4-(3,5-Bistrifluoro-methylphenyl)piperazin-1-yl]ethyl}cyclohexyl)-2-ethoxyacetamide], for which the melting point was 135 °C.

As to `CC(C)(C)c1cc(N2CCN(CC[C@H]3CC[C@H](NC(=O)CC#N)CC3)CC2)nc(C(C)(C)C)n1` [Example 111, 2-Cyano-N-(4-{2-[4-(2,6-di-tert-butylpyrimidin-4-yl)piperazin-1-yl]ethyl}cyclohexyl)acetamide trans/cis 65/35], the melting point was found to be 145 °C.

`CCOCC(=O)N[C@H]1CC[C@H](CCN2CCN(c3cccc(F)c3F)CC2)CC1` [Example 112, N-(4-{2-[4-(2,3-Difluorophenyl)-piperazin-1-yl]ethyl}cyclohexyl)-2-ethoxyacetamide] gave a melting point of 140 °C.

In turn, `N#CCC(=O)N[C@H]1CC[C@H](CCN2CCN(c3cccc(F)c3F)CC2)CC1` [Example 113, 2-Cyano-N-(4-{2-[4-(2,3-difluorophenyl)piperazin-1-yl]ethyl}cyclohexyl)acetamide] displayed a melting point of 190 °C.

For `Cc1cccc(N2CCN(CC[C@H]3CC[C@H](NC(=O)CC#N)CC3)CC2)c1C#N` [Example 114, 2-Cyano-N-(4-{2-[4-(2-cyano-3-methylphenyl)piperazin-1-yl]ethyl}cyclohexyl)acetamide], the melting point stood at 221 °C.

Molecule `Cc1cccc(N2CCN(CC[C@H]3CC[C@H](NC(=O)CC(F)(F)F)CC3)CC2)c1C#N` [Example 115, N-(4-{2-[4-(2-Cyano-3-methylphenyl)piperazin-1-yl]ethyl}cyclohexyl)-3,3,3-trifluoropropanamide] yielded a melting point of 207 °C.

In turn, `N#CCC(=O)N[C@H]1CC[C@H](CCN2CCN(c3cccc4c3CCCC4)CC2)CC1` [Example 116, 2-Cyano-N-(4-{2-[4-(5,6,7,8-tetrahydronaphthalen-1-yl)piperazin-1-yl]ethyl}cyclohexyl)acetamide] yielded a melting point of 175 °C.

`CCOCC(=O)N[C@H]1CC[C@H](CCN2CCN(c3cccc4c3CCCC4)CC2)CC1` [Example 117, 2-Ethoxy-N-(4-{2-[4-(5,6,7,8-tetrahydronaphthalen-1-yl)piperazin-1-yl]ethyl}-cyclohexyl)acetamide] displayed a melting point of 91 °C.

In the case of `COCC(=O)N[C@H]1CC[C@H](CCN2CCN(c3cc(C(F)(F)F)cc(C(F)(F)F)c3)CC2)CC1` [Example 118, N-(4-{2-[4-(3,5-Bistrifluoro-methylphenyl)piperazin-1-yl]ethyl}cyclohexyl)-2-methoxyacetamide], the melting point amounted to 164 °C.

`COCC(=O)N[C@H]1CC[C@H](CCN2CCN(c3cccc(C(F)(F)F)c3C#N)CC2)CC1` [Example 119, N-(4-{2-[4-(2-Cyano-3-trifluoromethylphenyl)piperazin-1-yl]ethyl}cyclohexyl)-2-methoxyacetamide] gave a melting point of 172 °C.

Regarding `CCOCC(=O)N[C@H]1CC[C@H](CCN2CCN(c3cc(C(C)(C)C)nc(C(C)(C)C)n3)CC2)CC1` [Example 121, N-(4-{2-[4-(2,6-Di-tert-butylpyrimidin-4-yl)piperazin-1-yl]ethyl}cyclohexyl)-2-ethoxyacetamide], the melting point came to 104 °C.

Molecule `COCC(=O)N[C@H]1CC[C@H](CCN2CCN(c3cc(C(C)(C)C)nc(C(C)(C)C)n3)CC2)CC1` [Example 122, N-(4-{2-[4-(2,6-Di-tert-butylpyrimidin-4-yl)piperazin-1-yl]ethyl}cyclohexyl)-2-methoxyacetamide] had a melting point of 130 °C.

`CCOCC(=O)N[C@H]1CC[C@H](CCN2CCN(c3ccccc3OC)CC2)CC1` [Example 123, 2-Ethoxy-N-(4-{2-[4-(2-methoxyphenyl)piperazin-1-yl]ethyl}cyclohexyl)acetamide] registered a melting point of 210 to 214 °C.

`COc1ccccc1N1CCN(CC[C@H]2CC[C@H](NC(=O)CC#N)CC2)CC1` [Example 124, 2-Cyano-N-(4-{2-[4-(2-methoxyphenyl)piperazin-1-yl]ethyl}cyclohexyl)acetamide] showed a melting point of 187 °C.

As to `COCC(=O)N[C@H]1CC[C@H](CCN2CCN(c3ccccc3OC)CC2)CC1` [Example 125, 2-Methoxy-N-(4-{2-[4-(2-methoxyphenyl)piperazin-1-yl]ethyl}cyclohexyl)acetamide], the melting point lay in the range of 125 to 126 °C.

`CC(=O)NCC(=O)N[C@H]1CC[C@H](CCN2CCN(c3ccccc3)CC2)CC1` [Example 128, 2-Acetylamino-N-{4-[2-(4-phenylpiperazin-1-yl)ethyl]cyclohexyl}acetamide] registered a melting point of 227 °C.

Regarding `COCC(=O)N[C@H]1CC[C@H](CCN2CCN(c3ccccc3Cl)CC2)CC1` [Example 129, N-(4-{2-[4-(2-Chlorophenyl)-piperazin-1-yl]ethyl}cyclohexyl)-2-methoxyacetamide], the melting point stood at 100 °C.

The molecule `COCC(=O)N[C@H]1CC[C@H](CCN2CCN(c3cccc4c3CCCC4)CC2)CC1` [Example 130, 2-Methoxy-N-(4-{2-[4-(5,6,7,8-tetrahydronaphthalen-1-yl)piperazin-1-yl]ethyl}cyclohexyl)acetamide] returned a melting point of 120 °C.

For the molecule `N#CCC(=O)N[C@H]1CC[C@H](CCN2CCN(c3ccccc3Cl)CC2)CC1` [Example 131, N-(4-{2-[4-(2-Chlorophenyl)-piperazin-1-yl]ethyl}cyclohexyl)-2-cyanoacetamide], the melting point was determined as 194 °C.

Molecule `CCOCC(=O)N[C@H]1CC[C@H](CCN2CCN(c3ccccc3Cl)CC2)CC1` [Example 132, N-(4-{2-[4-(2-Chlorophenyl)-piperazin-1-yl]ethyl}cyclohexyl)-2-ethoxyacetamide] registered a melting point of 108 °C.

`N#CCC(=O)N[C@H]1CC[C@H](CCN2CCN(c3cccc(F)c3)CC2)CC1` [Example 133] returned a melting point of 202 °C.

As for `CC(=O)NCC(=O)N[C@H]1CC[C@H](CCN2CCN(c3ccccc3F)CC2)CC1` [Example 134, 2-Acetylamino-N-(4-{2-[4-(2-fluorophenyl)piperazin-1-yl]ethyl}cyclohexyl)acetamide], the melting point worked out at 217 °C.

`CC(C)(C)OCC(=O)N[C@H]1CC[C@H](CCN2CCN(c3cccc(C(F)(F)F)c3)CC2)CC1` [Example 135, 2-tert-Butoxy-N-(4-{2-[4-(3-trifluoromethylphenyl)piperazin-1-yl]ethyl}cyclohexyl)acetamide trans/cis 95/5] displayed a melting point of 81 °C.

In turn, `Cc1c(Cl)cccc1N1CCN(CC[C@H]2CC[C@H](NC(=O)CC#N)CC2)CC1` [Example 136, N-(4-{2-[4-(3-Chloro-2-methylphenyl)piperazin-1-yl]ethyl}cyclohexyl)-2-cyanoacetamide] came in with a melting point of 179 to 182 °C.

Regarding `CCOCC(=O)N[C@H]1CC[C@H](CCN2CCN(c3cccc(Cl)c3C)CC2)CC1` [Example 137, N-(4-{2-[4-(3-Chloro-2-methylphenyl)piperazin-1-yl]ethyl}cyclohexyl)-2-ethoxyacetamide], the melting point stood at 143 °C.

Take `N#CCC(=O)N[C@H]1CC[C@H](CCN2CCN(c3cc(C#N)cc(C(F)(F)F)c3)CC2)CC1` [Example 138, 2-Cyano-N-(4-{2-[4-(3-cyano-5-trifluoromethylphenyl)piperazin-1-yl]ethyl}cyclohexyl)acetamide]: the melting point was 186 °C.
